# Measured values taken from ChEMBL document CHEMBL1201862, “PubChem BioAssay data set” (2004).
#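 Briefly, cells in 96-well plates were exposed to five compound concentrations for 48 h, and endpoints were estimated by linear interpolation. GI50 is the concentration that inhibits growth by half.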 Activity calls are given as the source filed them. No stated cut-off is given here; in the data, active = GI50 up to about 1.1 µM and inactive = higher.
# Legend:
# Experiment in all cases: DTP human tumour cell line panel, 48 h
# [1] = test system: A498
# [2] = test system: A549
# [3] = test system: CAKI-1
# [4] = test system: CCRF-CEM
# [5] = test system: COLO 205
# [6] = test system: DLD-1
# [7] = test system: DMS-114
# [8] = test system: DMS-273
# [9] = test system: EKVX
# [10] = test system: HCC 2998
# [11] = test system: HCT-116
# [12] = test system: HCT-15
# [13] = test system: HL-60
# [14] = test system: HOP-18
# [15] = test system: HOP-62
# [16] = test system: HOP-92
# [17] = test system: HT-29
# [18] = test system: IGROV-1
# [19] = test system: K562
# [20] = test system: KM-20L2
# [21] = test system: KM12
# [22] = test system: LOX IMVI
# [23] = test system: M19-MEL
# [24] = test system: MCF7
# [25] = test system: MOLT-4
# [26] = test system: Malme-3M
# [27] = test system: NCI-H226
# [28] = test system: NCI-H23
# [29] = test system: NCI-H460
# [30] = test system: NCI-H522
# [31] = test system: NCI/ADR-RES
# [32] = test system: OVCAR-3
# [33] = test system: OVCAR-4
# [34] = test system: OVCAR-5
# [35] = test system: OVCAR-8
# [36] = test system: RPMI-8226
# [37] = test system: RXF 393
# [38] = test system: SF-268
# [39] = test system: SF-295
# [40] = test system: SF-539
# [41] = test system: SK-MEL-28
# [42] = test system: SK-MEL-2
# [43] = test system: SK-MEL-5
# [44] = test system: SK-OV-3
# [45] = test system: SN12C
# [46] = test system: SNB-19
# [47] = test system: SNB-75
# [48] = test system: SNB-78
# [49] = test system: SW-620
# [50] = test system: U-251
# [51] = test system: UACC-257
# [52] = test system: UACC-62
# [53] = test system: UO-31
# [54] = test system: XF498
# [55] = test system: 786-0
# [56] = test system: ACHN
# [57] = test system: LXFL 529
# [58] = test system: M14
# [59] = test system: TK-10
smiles,measurement,setting,value
CCOC(=O)/C=C/c1c[nH]c(=O)[nH]c1=O,GI50,[1],> 75 µM (inactive)
same,GI50,[2],> 75 µM (inactive)
same,GI50,[3],> 75 µM (inactive)
same,GI50,[4],> 75 µM (inactive)
same,GI50,[5],> 75 µM (inactive)
same,GI50,[6],> 75 µM (inactive)
same,GI50,[7],> 75 µM (inactive)
same,GI50,[8],> 75 µM (inactive)
same,GI50,[9],> 75 µM (inactive)
same,GI50,[10],> 75 µM (inactive)
same,GI50,[11],> 75 µM (inactive)
same,GI50,[12],> 75 µM
same,GI50,[13],> 75 µM (inactive)
same,GI50,[14],> 75 µM (inactive)
same,GI50,[15],> 49.1 µM (inactive)
same,GI50,[16],> 75 µM (inactive)
same,GI50,[17],> 75 µM (inactive)
same,GI50,[18],> 75 µM (inactive)
same,GI50,[19],> 75 µM (inactive)
same,GI50,[20],> 75 µM (inactive)
same,GI50,[21],> 75 µM (inactive)
same,GI50,[22],> 75 µM (inactive)
same,GI50,[23],> 75 µM (inactive)
same,GI50,[24],> 75 µM (inactive)
same,GI50,[25],> 33.4 µM (inactive)
same,GI50,[26],> 75 µM (inactive)
same,GI50,[27],> 75 µM (inactive)
same,GI50,[28],> 75 µM (inactive)
same,GI50,[29],> 75 µM (inactive)
same,GI50,[30],> 75 µM (inactive)
same,GI50,[31],> 75 µM (inactive)
same,GI50,[32],> 75 µM (inactive)
same,GI50,[33],> 75 µM (inactive)
same,GI50,[34],> 75 µM (inactive)
same,GI50,[35],> 75 µM (inactive)
same,GI50,[36],> 39.4 µM (inactive)
same,GI50,[37],> 75 µM (inactive)
same,GI50,[38],> 75 µM (inactive)
same,GI50,[39],> 75 µM (inactive)
same,GI50,[40],> 75 µM (inactive)
same,GI50,[41],> 75 µM (inactive)
same,GI50,[42],> 75 µM (inactive)
same,GI50,[43],> 75 µM (inactive)
same,GI50,[44],> 41.5 µM (inactive)
same,GI50,[45],> 75 µM (inactive)
same,GI50,[46],> 75 µM (inactive)
same,GI50,[47],> 72.6 µM (inactive)
same,GI50,[48],> 75 µM (inactive)
same,GI50,[49],> 47.3 µM (inactive)
same,GI50,[50],> 75 µM (inactive)
same,GI50,[51],> 75 µM (inactive)
same,GI50,[52],> 75 µM (inactive)
same,GI50,[53],> 75 µM (inactive)
same,GI50,[54],11.9 µM (inactive)
O=c1oc2c(ccc3occc32)c(N2CCCCC2)c1-c1ccccc1,GI50,[1],> 100 µM (inactive)
same,GI50,[2],> 93.3 µM (inactive)
same,GI50,[5],> 100 µM (inactive)
same,GI50,[6],> 100 µM (inactive)
same,GI50,[7],> 86.1 µM (inactive)
same,GI50,[8],> 100 µM (inactive)
same,GI50,[9],> 70.8 µM (inactive)
same,GI50,[10],> 100 µM (inactive)
same,GI50,[11],> 100 µM (inactive)
same,GI50,[12],> 80 µM
same,GI50,[13],24.2 µM (inactive)
same,GI50,[14],> 88.5 µM (inactive)
same,GI50,[15],> 100 µM (inactive)
same,GI50,[16],> 73.8 µM (inactive)
same,GI50,[17],61.2 µM (inactive)
same,GI50,[18],> 100 µM (inactive)
same,GI50,[20],> 100 µM (inactive)
same,GI50,[21],> 66.5 µM (inactive)
same,GI50,[22],> 100 µM (inactive)
same,GI50,[23],> 100 µM (inactive)
same,GI50,[24],> 93.5 µM (inactive)
same,GI50,[26],> 100 µM (inactive)
same,GI50,[28],> 100 µM (inactive)
same,GI50,[29],> 96.4 µM (inactive)
same,GI50,[30],> 86.3 µM (inactive)
same,GI50,[31],> 100 µM (inactive)
same,GI50,[32],> 100 µM (inactive)
same,GI50,[33],> 93.3 µM (inactive)
same,GI50,[34],> 100 µM (inactive)
same,GI50,[35],> 100 µM (inactive)
same,GI50,[37],> 64.3 µM (inactive)
same,GI50,[38],> 100 µM (inactive)
same,GI50,[39],97.3 µM (inactive)
same,GI50,[40],> 100 µM (inactive)
same,GI50,[41],> 100 µM (inactive)
same,GI50,[42],> 100 µM (inactive)
same,GI50,[43],> 72.4 µM (inactive)
same,GI50,[45],> 100 µM (inactive)
same,GI50,[46],> 100 µM (inactive)
same,GI50,[47],> 80.7 µM (inactive)
same,GI50,[48],> 91.8 µM (inactive)
same,GI50,[49],> 100 µM (inactive)
same,GI50,[50],> 100 µM (inactive)
same,GI50,[52],> 95.1 µM (inactive)
same,GI50,[53],12.7 µM (inactive)
same,GI50,[54],> 100 µM (inactive)
C=C1CCC23CC(CC[C@@H]2[C@@]12C[C@@H](c1ccoc1)OC2=O)OC3=O (stereo partly drawn),GI50,[55],> 100 µM (inactive)
same,GI50,[1],> 100 µM (inactive)
same,GI50,[2],> 100 µM (inactive)
same,GI50,[56],> 100 µM (inactive)
same,GI50,[3],> 100 µM (inactive)
same,GI50,[4],63 µM (inactive)
same,GI50,[5],> 100 µM (inactive)
same,GI50,[6],> 100 µM (inactive)
same,GI50,[7],> 100 µM (inactive)
same,GI50,[8],> 100 µM (inactive)
same,GI50,[9],> 100 µM (inactive)
same,GI50,[10],> 100 µM (inactive)
same,GI50,[11],> 100 µM (inactive)
same,GI50,[12],> 100 µM
same,GI50,[13],> 100 µM (inactive)
same,GI50,[14],> 100 µM (inactive)
same,GI50,[15],> 100 µM (inactive)
same,GI50,[16],> 100 µM (inactive)
same,GI50,[17],> 100 µM (inactive)
same,GI50,[18],> 100 µM (inactive)
same,GI50,[19],> 100 µM (inactive)
same,GI50,[20],> 100 µM (inactive)
same,GI50,[21],> 100 µM (inactive)
same,GI50,[57],> 100 µM (inactive)
same,GI50,[58],> 100 µM (inactive)
same,GI50,[23],> 100 µM (inactive)
same,GI50,[25],> 100 µM (inactive)
same,GI50,[26],> 100 µM (inactive)
same,GI50,[27],> 100 µM (inactive)
same,GI50,[28],> 100 µM (inactive)
same,GI50,[29],> 100 µM (inactive)
same,GI50,[30],> 100 µM (inactive)
same,GI50,[32],> 100 µM (inactive)
same,GI50,[33],> 100 µM (inactive)
same,GI50,[34],> 100 µM (inactive)
same,GI50,[35],> 100 µM (inactive)
same,GI50,[36],> 100 µM (inactive)
same,GI50,[38],> 100 µM (inactive)
same,GI50,[39],> 100 µM (inactive)
same,GI50,[40],> 100 µM (inactive)
same,GI50,[42],> 100 µM (inactive)
same,GI50,[43],> 100 µM (inactive)
same,GI50,[44],> 100 µM (inactive)
same,GI50,[45],> 100 µM (inactive)
same,GI50,[46],> 100 µM (inactive)
same,GI50,[48],> 100 µM (inactive)
same,GI50,[49],> 100 µM (inactive)
same,GI50,[59],> 100 µM (inactive)
same,GI50,[50],> 100 µM (inactive)
same,GI50,[51],> 100 µM (inactive)
same,GI50,[52],> 100 µM (inactive)
same,GI50,[53],> 100 µM (inactive)
same,GI50,[54],> 100 µM (inactive)
